Experimental data reported in US12178791B2, “Haloallylamine sulfone derivative inhibitors of lysyl oxidases and uses thereof” (Syntara Limited, priority 2018, dated 2024).
Entries after “also recorded” stand apart in the source; their conditions may differ. Structures can show the parent of a compound that is named as a salt.

Columns and labels:
[1] = test system: CCl4 hepatic fibrosis / 4t1 metastasis; assay: CCl4 induced liver fibrosis with orthotopic 4t1 breast cancer cells (fibrosis associated metastasis); assay type: in vivo, BALB/c mice; conditions: 20 mg/kg daily ip
Procedure: Hepatic fibrosis was induced by treated of BALB/c mice twice weekly with 1 mg/kg carbon tetrachloride (CCl4) for a period of 8 wks.

[2] = test system: lysyl oxidase; assay: Target engagement: lysyl oxidase activity in the aorta; assay type: in vivo, Wistar rats
Procedure: Sample preparation: All preparation activities were performed on ice, with buffers in presence of proteases inhibitors (PMSF: Sigma P7626, 0.25 mM, Aprotinin: Sigma A6279, 1 μL per mL) (Methods in Cell Biology, 2018; 143: 147-156). The surrounding adventitia and muscle/fat from the frozen aorta sample was removed in ice-cold Wash Buffer (0.15 M NaCl, 50 mM sodium borate, pH=8.0, with protease inhibitors) using fine forceps, under a dissecting microscope. The aorta was blotted on a Kimwipe and weighed in a 1.5 mL Eppendorf tube and left on ice. After snap-freezing the aorta in liquid nitrogen, a mortar and the pestle (stored at −80° C.) was used to pulverize the tissue. The pulverized tissue was transferred to a designated tube containing metal beads, 10× v/w Wash Buffer+protease inhibitors. The tissues was homogenized for 5 seconds using a bead-mill. The homogenate was centrifuged at 10,000×g for 10 minutes at 4° C. and the supernatant was discarded. Homogenization and washing steps were repeated twice more. […]
Assay: Pargyline (final concentration 0.5 mM) and mofegiline (final concentration 1 μM) were added to the samples. […] Plate fluorescence was then measured every 2.5 min (Ex: 544 nm/Em: 590 nm/gain: 1260; 37° C.) on Fluostar™.
[…] The responses were normalised to the activity measured in animals treated with saline (control).

[3] = test system: kidney fibrosis (UUO); assay: Unilateral ureteral obstruction (UUO) model of acute kidney fibrosis; assay type: in vivo, mice; conditions: 10 mg/kg daily orally, 14 days
Procedure: A 14-day unilateral ureteric obstruction (UUO) model of acute kidney fibrosis in mice was conducted to mimic the different stages of obstructive nephropathy leading to tubulointerstitial fibrosis in an accelerated manner UUO surgery was performed by ligation of the left ureter and induced decrease of left kidney thickness and atrophy (indicated by a significant decrease in kidney weight and ratio of kidney/body weight when compared to the contralateral side) as well as a significant increase in kidney fibrosis. Treatment groups received Compound 33 (10 mg/kg daily) orally for the duration of the study. Compound 33 increased kidney weight and thickness and reduced the area of fibrosis as measured by Picrosirius Red (FIG. 9). Captopril (˜32 mg/kg/day in drinking water) was used as a positive control.

[4] = test system: bleomycin-induced lung fibrosis; assay: Bleomycin-induced lung fibrosis model; assay type: in vivo, C57Bl/6 mice; conditions: daily oral gavage for 21 days
Procedure: C57Bl/6 mice were given 1.5 U/kg amounts of generic clinical Bleomycin (Blenoxane) via oropharyngeal administration. Compound 33 was dosed daily via oral gavage for 21 days, after which time, tissues were harvested and analyzed.

[5] = test system: scar tissue after excision of dermal tissue; assay: Rodent injury model; assay type: in vivo, mice; conditions: 1% solution topical
Procedure: Mice received injury by excision of dermal tissue. In the treatment group, 1% Compound 1 solution was applied topically from 24 hours post injury to 1 week post injury. Wounds were then left to heal for an additional week. Mice were euthanized at 14 days post injury and the tissue was analyzed for collagen I content, and changes in gross morphology and histology.

[6] = molecular target: rhSSAO (Homo sapiens (Human), UniProt Q16853); assay: Measurement of substrate turnover by SSAO; assay type: biochemical; conditions: compound 2.5 mM, relative to background (dimethyl sulfoxide only)
Procedure: In brief, the assay employed determines the substrate propensity of a compound relative to background (dimethyl sulfoxide only). Compound oxidation by rhSSAO was measured by fluorometric assay (Holt and Palcic, 2006). Briefly, rhSSAO was incubated for 2 hours at 37° C. in HEPES buffer before the addition of an equal volume of Amplex Red ([…]), horseradish peroxidase (4 U/ml), and Compound (2.5 mM) in the same buffer. The kinetics of the formation of resorufin was measured immediately using Optima reader (BMG Labtech GmbH, Ortenburg, Germany), at 37° C.

[7] = test system: deep dermal burn injuries; assay: Porcine burn injury model; assay type: in vivo, pigs; conditions: 3% topical daily for 4 weeks
Procedure: Pigs received 4×25 cm^2 deep dermal burn injuries, 2 on each flank. From the time of re-epithelialisation, on each pig, 2 wounds were treated with 3% Compound 1 cream daily for 4 weeks and 2 received control cream. Pigs were euthanized and tissue was processed for analysis.

[8] = vs control cream, hydrochloride

rhSSAO, sequence (Q16853 whole entry): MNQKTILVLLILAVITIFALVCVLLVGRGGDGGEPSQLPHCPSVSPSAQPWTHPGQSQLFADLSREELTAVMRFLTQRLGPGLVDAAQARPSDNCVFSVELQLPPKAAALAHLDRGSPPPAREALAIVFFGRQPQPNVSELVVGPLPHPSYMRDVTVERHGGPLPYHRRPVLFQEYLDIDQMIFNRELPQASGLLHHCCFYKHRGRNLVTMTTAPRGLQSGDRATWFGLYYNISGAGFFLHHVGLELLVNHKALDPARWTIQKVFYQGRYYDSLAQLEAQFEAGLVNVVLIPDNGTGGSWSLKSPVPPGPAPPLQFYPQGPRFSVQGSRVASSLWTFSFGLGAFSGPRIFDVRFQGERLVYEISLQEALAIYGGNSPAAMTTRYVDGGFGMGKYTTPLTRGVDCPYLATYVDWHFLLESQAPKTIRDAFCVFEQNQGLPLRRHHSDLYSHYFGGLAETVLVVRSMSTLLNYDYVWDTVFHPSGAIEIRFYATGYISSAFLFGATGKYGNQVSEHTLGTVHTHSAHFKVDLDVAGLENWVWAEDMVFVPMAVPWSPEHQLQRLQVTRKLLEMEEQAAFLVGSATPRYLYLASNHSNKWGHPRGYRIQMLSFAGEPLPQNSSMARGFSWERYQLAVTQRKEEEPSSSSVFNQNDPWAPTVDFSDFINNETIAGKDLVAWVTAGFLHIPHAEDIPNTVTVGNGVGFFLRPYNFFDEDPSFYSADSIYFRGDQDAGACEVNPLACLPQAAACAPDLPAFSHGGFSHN

Row | SMILES | collagen cross-links in the liver [1] | primary tumor growth or collagen cross-links (primary tumor) [1] | liver fibrosis ([1]; 8 wks CCl4) | metastatic load in the liver ([1]; dihydrochloride) | half-life of recovery of lysyl oxidase activity (aorta) ([2]; single oral dose) | lysyl oxidase enzymatic activity in rat aorta ([2]; single oral dose at 5, 10 or 30 mg/kg, vs untreated control) | area of fibrosis as measured by Picrosirius Red [3] | kidney weight and thickness [3] | lung weight [4] | reduction of immature (DHLNL) cross-links per lung [4] | reduction of mature (PYD) cross-links per lung [4] | Ashcroft score ([4]; dihydrochloride) | Collagen I quantity (LCMS, normalized for protein content) ([5]; 24 hours to 1 week post injury, analysis 14 days post injury, vs control, hydrochloride) | Histology: collagen bundles in scar tissue ([5]; 14 days post injury) | Substrate activity for rhSSAO [6] | Gross morphology and histology: thick collagen fibers [7] | LOX activity in treated tissue [7, 8] | total collagen I protein [7, 8]
1 | NC/C=C(\F)CS(=O)(=O)c1cccc2cccnc12 [Compound 33, (Z)-3-fluoro-4-(quinolin-8-ylsulfonyl)but-2-en-1-amine dihydrochloride] | significantly reduced | No differences | significantly reduced | reduce; also recorded: significantly reduced | 24 h | dose-dependent block | reduced | increased | significantly reduced | 37% | 45% | reduce; also recorded: significantly reduced | – | – | – | – | – | –
2 | NC/C=C(\F)CS(=O)(=O)c1ccccc1 [Compound 1, (Z)-3-fluoro-4-(phenylsulfonyl)but-2-en-1-amine hydrochloride] | – | – | – | – | – | – | – | – | – | – | – | – | reduction in collagen; also recorded: reduced | decreased density of bundles | no significant turnover | reduced density | reduction; also recorded: significantly reduced | reduction; also recorded: significantly reduced
